PMC10492782, “Exploiting the aggregation propensity of beta-lactamases to design inhibitors that induce enzyme misfolding” (Nature Communications, 2023)
Values after ≈ are worked out from the molar mass of the structure shown. Where two headings read alike, the source gives them in different places. Residues, ends and D or L forms follow the SMILES beside them.

Tests used:
[1] = tested on: E. coli; format: cell-based, Escherichia coli; details: E.coli TEM104, Suppl. Figure 5
Procedure: For the analysis of synergy between the peptides and other antibiotics, a checkerboard assay was performed. Based on the MICs of the selected peptides, a checkerboard assay was designed to define their FICIs (Fractional Inhibitory Concentration Index) in combinations against different clinical isolates[53],[54]. Briefly, a total volume of 100 μL of Mueller–Hinton broth was distributed into each well of the 96-well plates. The first compound (peptide) of the combination was serially diluted vertically (128, 64, 32, 16, 8, 4, 2, 0 μg/mL) while the other drug (Beta-lactam or Kanamycin) was diluted horizontally in a 96-well plate (from 3200 to 3 μg/ mL). The total volume of each microtiter well was inoculated with 100 μL of MHB containing 1 × 10^6 CFU/mL bacteria. The plates were incubated at 37 °C for 24 h under aerobic conditions without shaking. Calculation of the FICI is used to analyze the results of the checkerboard assay by estimating the degree of synergistic effect. FICI is calculated as the sum of the individual fractional inhibitory concentrations (FICs) for each drug (where MIC A and MIC B denote the MIC of each drug alone, and MIC AA+B and MIC BA+B denote the concentrations of A and B in the drug combination). FICI = (MIC AA+B/MIC A) + (MIC BA+B/MIC B). With FICI ≤ 0.5, the combination of antibiotics is considered as a synergistic effect, 0.5 < FICI ≤ 1 indicates additivity, FICI > 1 indicates indifference. […]
Supplementary Figure 5: Fraction Inhibitory Concentration Index (FICI) values obtained from checkerboard assays between control peptides 1-4 and penicillin G. The peptide sequences were obtained by introducing proline mutations in TEM3.2 as follows: Pro1 […]
([…]), Pro2 ([…]), Pro3
([…]) and Pro4 ([…]). Each of the five dots […]
per condition indicates an independent experiment of the measurement consisting of 96 datapoints. FICI values below 0.5 indicate synergy (shaded in green). Values between 0.5 and 1.0 indicate additivity (shaded in yellow) and values greater than 1 indicate indifference (shaded in red) between the combined substances. […]

[2] = tested on: E. coli strain UZ_TEM104; experiment: microbe, parasite or virus in culture; format: cell-based, Escherichia coli
[3] = tested on: E. coli strain UZ_TEM104; details: broth microdilution, MHB, overnight 37 °C, peptide alone
Excerpt: Pept-Ins consist of a tandem repeat of the APR, each instance flanked by charged amino acids for solubility and separated by a short peptide linker[20],[21],[24] (Fig. 3A). Previous work has shown that good bacterial uptake can be achieved using one positively charged arginine residue on the N-terminal side of each APR in the tandem and two arginine residues on the C-terminal side[20],[21]. […] As before, we employed a single Pro residue as a linker between the APRs and focused on an APR length of seven, extending shorter APRs to this length by incorporating flanking amino acids unless they were obvious aggregation breakers (Arg, Lys, Asp, Glu or Pro, see Table 1).
Determination of MIC values was performed using the broth microdilution method according to the EUCAST guideline, which was performed in 96-well polystyrene flat-bottom microtiter plates (BD Biosciences). Briefly, a single colony was inoculated into 5 mL Difco™ Mueller–Hinton Broth (BD Biosciences Ref 275730) and grown to the end-exponential growth phase in a shaking incubator at 37 °C. Cultures were subsequently diluted to a MacFarland (0.5 optical density) to reach 10^6 CFU/mL in fresh MHB medium. 50 µl of different concentrations of peptides ranging from 128 to 2 µg/mL were serially diluted to the sterile 96-well plate in MHB. 50 µL of the diluted bacteria in MHB were next pipetted into 96-well plates to reach the final volume of 100 µL. The bacteria grown with the maximum concentration of carrier and medium were considered positive and negative controls, respectively. The plates were statically incubated overnight at 37 °C to allow bacterial growth. OD was measured at 590 nm using a multipurpose ultraviolet–visible plate reader, and the absorbance of the bacterial growth was measured using an absorbance reader.

[4] = tested on: E. coli TEM-30; format: cell-based, Escherichia coli; details: for Interoretation: E. coli TEM-30; for Interpretation: VITEK 2 AST card
Procedure: (§1) Beta-lactamase clinical samples were collected from University Hospitals Leuven and tested for ESBL production using the disk diffusion method. The beta-lactamase reference isolates were purchased from International Health Management Associates (IHMA). Bacterial strains were cultivated in Mueller–Hinton Broth (MHB, Difco) at 37 °C. Whenever required, growth media were supplemented with appropriate antibiotics to the medium or plates (kanamycin 30 µg/mL, L-arabinose 0.5 mg/mL, and IPTG […]). Escherichia coli BL21 (ThermoFisher Scientific, Belgium) was used for cloning and plasmid amplification. For the selection of antibiotic resistant colonies, E. coli carrying plasmids was grown in LB agar plates supplemented with the relevant antibiotic. Bacterial CFU counting was done on blood agar plates (BD Biosciences, Belgium) or MHA agar plates. Species identification and antibiograms for all clinical isolates were performed using MALDI-Tof and VITEK® 2 automated system (BioMérieux, France).
(§2) Khodaparast et al Supplementary data
(§3) study. […] Abbreviations: S,
(§4) susceptible; I, intermediate; R, resistant.

[5] = tested on: E. coli NDM5b; experiment: VITEK 2 AST antimicrobial susceptibility testing; format: cell-based, Escherichia coli; details: for Interoretation: E. coli NDM5b; for Interpretation: VITEK 2 AST card
Procedure: as §1, §2, §3, §4

[6] = tested on: E. coli TEM-148; experiment: VITEK 2 AST antimicrobial susceptibility testing; format: cell-based, Escherichia coli; details: for Interoretation: E. coli TEM-148; for Interpretation: VITEK 2 AST card
Procedure: as §1, §2, §3, §4

[7] = tested on: E. coli TEM-16; experiment: VITEK 2 AST antimicrobial susceptibility testing; format: cell-based, Escherichia coli; details: for Interoretation: E. coli TEM-16; for Interpretation: VITEK 2 AST card
Procedure: as §1, §2, §3, §4

[8] = tested on: E. coli TEM-206; experiment: VITEK 2 AST antimicrobial susceptibility testing; format: cell-based, Escherichia coli; details: for Interoretation: E. coli TEM-206; for Interpretation: VITEK 2 AST card
Procedure: as §1, §2, §3, §4

[9] = tested on: E. coli SHV1 (APHA); experiment: VITEK 2 AST antimicrobial susceptibility testing; format: cell-based, Escherichia coli; details: for Interoretation: E. coli SHV154; for Interpretation: VITEK 2 AST card
Procedure: as §1, §2, §3, §4

[10] = tested on: E. coli TEM-104; experiment: VITEK 2 AST antimicrobial susceptibility testing; format: cell-based, Escherichia coli; details: for Interoretation: E. coli TEM-104; for Interpretation: VITEK 2 AST card
Procedure: as §1, §2, §3, §4

[11] = tested on: E. coli NDM5a; experiment: VITEK 2 AST antimicrobial susceptibility testing; format: cell-based, Escherichia coli; details: for Interoretation: E. coli NDM5a; for Interpretation: VITEK 2 AST card
Procedure: as §1, §2, §3, §4

[12] = E. coli UZ_TEM104, concentration of additive 50 (mg/mL [sic])
[13] = in the presence of additive (peptide or tazobactam) at fixed 50 μg/mL

Molecule: Ac-RPTAPLHNRRPRPTAPLRQRR-NH2 [Pro1]
- FICi values ([1]; Replicate1): 2
- FICi values ([1]; Replicate2): 2
- FICi values ([1]; Replicate3): 2
- FICi values ([1]; Replicate4): 2

Molecule: Ac-RIVVIYTTRRPRIVVIYTTRR-NH2 [TEM7.0]
- MIC penicillin [2, 12]: 1600 mg/mL
- MIC penicillin [2, 13]: 1.6 mg/mL
- MIC peptide [3]: >0.1 mg/mL

Molecule: Ac-RLTAFLHNRRPRLTAFLHNRR-NH2 [TEM3.0]
- MIC peptide [3]: >0.1 mg/mL

Molecule: CC(=O)N[C@@H](CCCNC(=N)N)C(=O)N[C@@H](Cc1ccccc1)C(=O)N[C@@H](Cc1ccccc1)C(=O)N[C@@H](C)C(=O)N[C@@H](C)C(=O)N[C@@H](Cc1ccccc1)C(=O)N[C@@H](CS)C(=O)N[C@@H](CC(C)C)C(=O)N[C@@H](CCCNC(=N)N)C(=O)N[C@@H](CCCNC(=N)N)C(=O)N1CCC[C@H]1C(=O)N[C@@H](CCCNC(=N)N)C(=O)N[C@@H](Cc1ccccc1)C(=O)N[C@@H](Cc1ccccc1)C(=O)N[C@@H](C)C(=O)N[C@@H](C)C(=O)N[C@@H](Cc1ccccc1)C(=O)N[C@@H](CS)C(=O)N[C@@H](CC(C)C)C(=O)N[C@@H](CCCNC(=N)N)C(=O)N[C@@H](CCCNC(=N)N)C(N)=O [TEM1.0] (Ac-RFFAAFCLRRPRFFAAFCLRR-NH2)
- MIC penicillin [2, 12]: 1600 mg/mL (≈ 594 mM)
- MIC penicillin [2, 13]: 1.6 mg/mL
- MIC peptide [3]: >0.1 mg/mL

Molecule: Ac-RLLLTTIGRRPRLLLTTIGRR-NH2 [TEM2.0]
- MIC penicillin [2, 12]: 800 mg/mL
- MIC penicillin [2, 13]: 0.8 mg/mL
- MIC peptide [3]: >0.1 mg/mL

Molecule: Ac-RAGWFIARRPRAGWFIARR-NH2 [TEM5.0]
- MIC penicillin [2, 12]: 1600 mg/mL
- MIC penicillin [2, 13]: 1.6 mg/mL
- MIC peptide [3]: 0.1 mg/mL

Molecule: Ac-RLPPFLHNRRPRLPPFLRQRR-NH2 [Pro2]
- FICi values ([1]; Replicate1): 0.75
- FICi values ([1]; Replicate2): 0.625
- FICi values ([1]; Replicate3): 0.67
- FICi values ([1]; Replicate4): 0.71

Molecule: Ac-RPTPFLHNRRPRPTPFLRQRR-NH2 [Pro3]
- FICi values ([1]; Replicate1): 2
- FICi values ([1]; Replicate2): 2
- FICi values ([1]; Replicate3): 2
- FICi values ([1]; Replicate4): 2

Molecule: Ac-RLLTLASRRPRLLTLASRR-NH2 [TEM4.0]
- MIC penicillin [2, 12]: 1600 mg/mL
- MIC penicillin [2, 13]: 1.6 mg/mL
- MIC peptide [3]: 0.1 mg/mL

Molecule: CO/N=C(\C(=O)N[C@@H]1C(=O)N2C(C(=O)O)=C(COC(N)=O)CS[C@H]12)c1ccco1 [Cefuroxime]
- Interoretation [4]: R
- Interpretation [4]: R
- Interoretation [5]: R
- Interpretation [5]: R
- Interoretation [6]: R
- Interpretation [6]: R
- Interoretation [7]: R
- Interpretation [7]: R
- Interoretation [8]: R
- Interpretation [8]: R
- Interoretation [9]: R
- Interpretation [9]: R
- Interoretation [10]: S
- Interpretation [10]: S
- Interoretation [11]: R
- Interpretation [11]: R

Molecule: CO/N=C(\C(=O)N[C@@H]1C(=O)N2C(C(=O)O)=C(COC(C)=O)CS[C@H]12)c1csc(N)n1 [Cefotaxime]
- Interoretation [4]: R
- Interpretation [4]: R
- Interoretation [5]: R
- Interpretation [5]: R
- Interoretation [6]: R
- Interpretation [6]: R
- Interoretation [7]: R
- Interpretation [7]: R
- Interoretation [8]: R
- Interpretation [8]: R
- Interoretation [9]: R
- Interpretation [9]: R
- Interoretation [10]: S
- Interpretation [10]: S
- Interoretation [11]: R
- Interpretation [11]: R

Molecule: NCC[C@H](O)C(=O)N[C@@H]1C[C@H](N)[C@@H](O[C@H]2O[C@H](CN)[C@@H](O)[C@H](O)[C@H]2O)[C@H](O)[C@H]1O[C@H]1O[C@H](CO)[C@@H](O)[C@H](N)[C@H]1O [Amikacin]
- Interoretation [4]: S
- Interpretation [4]: S
- Interoretation [5]: S
- Interpretation [5]: S
- Interoretation [6]: S
- Interpretation [6]: S
- Interoretation [7]: S
- Interpretation [7]: S
- Interoretation [8]: S
- Interoretation [9]: S
- Interpretation [9]: S
- Interoretation [10]: S
- Interpretation [10]: S
- Interoretation [11]: S
- Interpretation [11]: S

Molecule: NC[C@H]1O[C@H](O[C@H]2[C@H](O)[C@@H](O[C@H]3O[C@H](CO)[C@@H](O)[C@H](N)[C@H]3O)[C@H](N)C[C@@H]2N)[C@H](N)C[C@@H]1O [Tobramycin]
- Interoretation [4]: *R
- Interpretation [4]: *R
- Interoretation [5]: S
- Interpretation [5]: S
- Interoretation [6]: S
- Interpretation [6]: S
- Interoretation [7]: S
- Interpretation [7]: S
- Interoretation [8]: S
- Interoretation [9]: *R
- Interpretation [9]: *R
- Interoretation [10]: S
- Interpretation [10]: S
- Interoretation [11]: R
- Interpretation [11]: R

Molecule: C=CC1=C(C(=O)O)N2C(=O)[C@@H](NC(=O)/C(=N\OCC(=O)O)c3csc(N)n3)[C@H]2SC1 [Cefixime]
- Interoretation [4]: *I
- Interpretation [4]: *I
- Interoretation [5]: R
- Interpretation [5]: R
- Interoretation [6]: *I
- Interpretation [6]: *I
- Interoretation [7]: R
- Interpretation [7]: R
- Interoretation [8]: R
- Interpretation [8]: R
- Interoretation [9]: R
- Interpretation [9]: R
- Interoretation [10]: S
- Interpretation [10]: S
- Interoretation [11]: R
- Interpretation [11]: R

Molecule: Trimethoprim/sulfamethoxazole
- Interoretation [4]: S
- Interpretation [4]: S
- Interoretation [5]: R
- Interpretation [5]: R
- Interoretation [6]: R
- Interpretation [6]: R
- Interoretation [7]: S
- Interpretation [7]: S
- Interoretation [8]: R
- Interpretation [8]: R
- Interoretation [9]: R
- Interpretation [9]: R
- Interoretation [10]: S
- Interpretation [10]: S
- Interoretation [11]: S
- Interpretation [11]: S

Molecule: Ac-RLTPFPHNRRPRLTPFPRQRR-NH2 [Pro4]
- FICi values ([1]; Replicate1): 2
- FICi values ([1]; Replicate2): 2
- FICi values ([1]; Replicate3): 2
- FICi values ([1]; Replicate4): 2
